In paper PMC11866186, “Novel Benzimidazole–Oxadiazole Derivatives as Anticancer Agents with VEGFR2 Inhibitory Activity: Design, Synthesis, In Vitro Anticancer Evaluation, and In Silico Studies” (ACS Omega, 2025):
Where two headings read alike, the source gives them in different places.

Legend:
CCD-19Lu cell line = assay: MTT assay, normal lung CCD-19Lu cells; format: cell-based; settings: normal human lung cells, 24 h, read-out: IC50 against CCD-19Lu
Method: (§1) By comparing the compounds’ cytotoxic effects against tumor cell lines and normal cell lines, the drug safety parameter for the anticancer activity of the compounds was evaluated, thereby confirming their cytoprotective qualities. In this study, normal human lung (CCD-19Lu) and normal human pancreas (hTERT-HPNE) cell lines were used as controls. The selectivity index (SI) calculated for the compounds tested scales the IC50 values of the compounds against various tumor cell lines with the IC50 values against normal cell lines (Table 2). […] The differential selectivity indices underscore the importance of targeted therapeutic strategies and the potential for these compounds to provide selective anticancer effects with reduced toxicity to normal cells.
(§2) Many analyses are performed to determine cell proliferation. MTT analysis is one of the viability determination tests. According to the working mechanism of the method, the dye containing the tetrazolium ring reacts with the dehydrogenase enzymes in the cells, only to be reduced and broken down by the metabolic cells, turning into water-insoluble formazan crystals. Color changes associated with mitochondrial activity and resulting from the addition of a solvent as a result of the reaction are measured in the microplate reader as optical density data values.[30] Cells were planted in flat-bottomed, 96-well, sterile, lidded, disposable microplates with 1 × 10^4 cells per well in 200 μL of appropriate medium and were allowed to adhere to the plate bottom by incubating for 24 h. At the end of 24 h, 100 μL of medium was withdrawn, and test substances at different concentrations, prepared in 100 μL, were added. Following the substance application, after a 24 h incubation period, 20 μL of stock MTT solution (MTT solution dissolved in 5 mg/mL PBS and filtered before application) was added to each well and protected from light, and the incubation continued for 3 h. Then, the media of the cells were completely withdrawn, and 100 μL of DMSO was added to dissolve the formazan crystals. After shaking in the dark for 15 min, the optical densities (absorbance) of the color changes at 540–570 and 650 nm reference wavelengths were read in the microplate reader. The data were calculated and created in Microsoft Office Excel. For this purpose, first, the blind well value and the control groups of colored substances were removed from the optical readings. The averages of optical densities and % viability values were made from Excel formula calculations, and the results were discussed. The viability of the control group was assumed to be 100%, and all other viability values were calculated based on this (series were run in n = 5 replicates).

hTERT-HPNE cell line = assay: MTT assay, normal pancreas hTERT-HPNE cells; format: cell-based; settings: normal human pancreas cells, 24 h, read-out: IC50 against hTERT-HPNE
Method: as §1, §2

A549 cell line = assay: MTT assay, A549 cells; format: cell-based, human; settings: MTT, 24 h, read-out: IC50 against A549
Method: (§3) The synthesized compounds 4a–4s were screened for their in vitro anticancer activity via the standard MTT assay using three human tumor cell lines, namely, the human lung adenocarcinoma cell line (A549), the human breast cancer cell line (MCF-7), and the human pancreas cell line (PANC-1). Cisplatin was used as a reference drug. […] When the structures of the compounds are evaluated, it is seen that the compounds are derived from two different sources. There are hydroxyl and methoxy substituents on the phenyl ring attached to the benzimidazole. It has also been derivatized using different groups on the phenyl ring close to oxadiazole. When the activities in the PANC-1 cell line are evaluated, it is seen that the activity of compounds bearing the 2,4-dichloro substituent is especially high.
as §2

MCF-7 cell line = assay: MTT assay, MCF-7 cells; format: cell-based, human; settings: read-out: IC50 against MCF-7
Method: as §3, §2

PANC-1 cell line = assay: MTT assay, PANC-1 cells; format: cell-based, human; settings: MTT, 24 h, read-out: IC50 against PANC-1
Method: Cisplatin was used as a reference drug. […] There are hydroxyl and methoxy substituents on the phenyl ring attached to the benzimidazole. It has also been derivatized using different groups on the phenyl ring close to oxadiazole.
as §2

Compound	IC50 (CCD-19Lu cell line) [µM]	IC50 (hTERT-HPNE cell line) [µM]	IC50 (A549 cell line) [µM]	IC50 (MCF-7 cell line; 24 h) [µM]	IC50 (PANC-1 cell line) [µM]	IC50 (CCD-19Lu cell line; CCD 19Lu) [µM]	IC50 (A549 cell line; Homo sapiens, A549) [µM]	IC50 (MCF-7 cell line; Homo sapiens, MCF7, 24 h) [µM]	IC50 (PANC-1 cell line; Homo sapiens, PANC-1, 24 h) [µM]
2-((5-(2-(4-Hydroxyphenyl)-1H-benzimidazol-6-yl)-1,3,4-oxadiazol-2-yl)thio)-1-(4-methylphenyl)-ethanone [4b]	40.3	86.8	5.1	17.4	33.1				
2-((5-(2-(4-Methoxyphenyl)-1H-benzimidazol-6-yl)-1,3,4-oxadiazol-2-yl)thio)-1-(4-methylphenyl)-ethanone [4k]	90.4	29.3	74.7	50.2	82				
O=C(CSc1nnc(-c2ccc3nc(-c4ccc(O)cc4)[nH]c3c2)o1)c1ccccc1 [4a, 2-((5-(2-(4-Hydroxyphenyl)-1H-benzimidazol-6-yl)-1,3,4-oxadiazol-2-yl)thio)-1-phenyl-ethanone]		26.2				46.1	63.2	39.5	42.2
O=C(CSc1nnc(-c2ccc3nc(-c4ccc(O)cc4)[nH]c3c2)o1)c1ccc(Cl)cc1 [4c, 2-((5-(2-(4-Hydroxyphenyl)-1H-benzimidazol-6-yl)-1,3,4-oxadiazol-2-yl)thio)-1-(4-chlorophenyl)-ethanone]		21.5				16.3	6.3	6.1	17.7
O=C(CSc1nnc(-c2ccc3nc(-c4ccc(O)cc4)[nH]c3c2)o1)c1ccc(F)cc1 [4d, 2-((5-(2-(4-Hydroxyphenyl)-1H-benzimidazol-6-yl)-1,3,4-oxadiazol-2-yl)thio)-1-(4-florophenyl)-ethanone]		6.8				5.2	10.3	10.1	33.3
O=C(CSc1nnc(-c2ccc3nc(-c4ccc(O)cc4)[nH]c3c2)o1)c1ccc(Br)cc1 [4e, 2-((5-(2-(4-Hydroxyphenyl)-1H-benzimidazol-6-yl)-1,3,4-oxadiazol-2-yl)thio)-1-(4-bromophenyl)-ethanone]		11.3				95.3	96.1	95.2	83.8
N#Cc1ccc(C(=O)CSc2nnc(-c3ccc4nc(-c5ccc(O)cc5)[nH]c4c3)o2)cc1 [4f, 2-((5-(2-(4-Hydroxyphenyl)-1H-benzimidazol-6-yl)-1,3,4-oxadiazol-2-yl)thio)-1-(4-cyanophenyl)-ethanone]		74.9				68.8	50.7	45.6	60.4
O=C(CSc1nnc(-c2ccc3nc(-c4ccc(O)cc4)[nH]c3c2)o1)c1ccc(F)cc1F [4g, 2-((5-(2-(4-Hydroxyphenyl)-1H-benzimidazol-6-yl)-1,3,4-oxadiazol-2-yl)thio)-1-(2,4-diflorophenyl)-ethanone]		17.1				31.8	16.8	30.7	36.6
O=C(CSc1nnc(-c2ccc3nc(-c4ccc(O)cc4)[nH]c3c2)o1)c1ccc(Cl)cc1Cl [4h, 2-((5-(2-(4-Hydroxyphenyl)-1H-benzimidazol-6-yl)-1,3,4-oxadiazol-2-yl)thio)-1-(2,4-dichlorophenyl)-ethanone]		32.9				30.3	14.6	15.7	26.7
O=C(CSc1nnc(-c2ccc3nc(-c4ccc(O)cc4)[nH]c3c2)o1)c1ccc(O)c(O)c1 [4i, 2-((5-(2-(4-Hydroxyphenyl)-1H-benzimidazol-6-yl)-1,3,4-oxadiazol-2-yl)thio)-1-(3,4-dihydroxyphenyl)-ethanone]		10.1				13.9	21.1	16.5	23.8
COc1ccc(-c2nc3ccc(-c4nnc(SCC(=O)c5ccccc5)o4)cc3[nH]2)cc1 [4j, 2-((5-(2-(4-Methoxyphenyl)-1H-benzimidazol-6-yl)-1,3,4-oxadiazol-2-yl)thio)-1-phenyl-ethanone]		93.6				95.2	99.1	53.7	95.7
COc1ccc(-c2nc3ccc(-c4nnc(SCC(=O)c5ccc(Cl)cc5)o4)cc3[nH]2)cc1 [4l, 2-((5-(2-(4-Methoxyphenyl)-1H-benzimidazol-6-yl)-1,3,4-oxadiazol-2-yl)thio)-1-(4-chlorophenyl)-ethanone]		19.5				47.8	49.1	22.6	42.1
COc1ccc(-c2nc3ccc(-c4nnc(SCC(=O)c5ccc(F)cc5)o4)cc3[nH]2)cc1 [4m, 2-((5-(2-(4-Methoxyphenyl)-1H-benzimidazol-6-yl)-1,3,4-oxadiazol-2-yl)thio)-1-(4-florophenyl)-ethanone]		28.6				20.2	25.3	36.9	41.1
COc1ccc(-c2nc3ccc(-c4nnc(SCC(=O)c5ccc(Br)cc5)o4)cc3[nH]2)cc1 [4n, 2-((5-(2-(4-Methoxyphenyl)-1H-benzimidazol-6-yl)-1,3,4-oxadiazol-2-yl)thio)-1-(4-bromophenyl)-ethanone]		36.2				36.8	19.6	28.9	29.5
COc1ccc(-c2nc3ccc(-c4nnc(SCC(=O)c5ccc(C#N)cc5)o4)cc3[nH]2)cc1 [4o, 2-((5-(2-(4-Methoxyphenyl)-1H-benzimidazol-6-yl)-1,3,4-oxadiazol-2-yl)thio)-1-(4-cyanophenyl)-ethanone]		64.2				48.4	65.2	49.2	70.9
COc1ccc(-c2nc3ccc(-c4nnc(SCC(=O)c5ccc(F)cc5F)o4)cc3[nH]2)cc1 [4p, 2-((5-(2-(4-Methoxyphenyl)-1H-benzimidazol-6-yl)-1,3,4-oxadiazol-2-yl)thio)-1-(2,4-diflorophenyl)-ethanone]		20.4				14.7	14.9	37.1	32.6
N.N.[Cl][Pt][Cl] [cisplatin, reference compound]	22.6	30.6	19.7	14.7	28.8				
